Test: xn = mol fraction of the nth substance listed

ClC(Cl)Cl + CN(C)C=O
viscosity [mPa·s], 101 kPa
Conditions | 293.15 K | 303.15 K | 313.15 K | 323.15 K
x2 = 0.0512 | 0.7325 | 0.6616 | 0.6031 | –
x2 = 0.1011 | 0.7913 | 0.7089 | 0.636 | 0.5823
x2 = 0.1954 | 0.9132 | 0.8102 | – | 0.6447
x2 = 0.1955 | – | – | 0.7206 | –
x2 = 0.2975 | 1.025 | 0.901 | 0.7977 | 0.7077
x2 = 0.392 | 1.095 | 0.9598 | 0.8479 | 0.7408
x2 = 0.5008 | 1.128 | 0.9894 | 0.8735 | 0.7803
x2 = 0.5983 | 1.123 | 0.9851 | 0.8753 | 0.7856
x2 = 0.6918 | 1.091 | 0.9617 | 0.8556 | 0.7692
x2 = 0.7851 | 1.051 | 0.9294 | 0.8306 | 0.7493
x2 = 0.8951 | 0.9944 | – | 0.7921 | 0.7179
x2 = 0.8952 | – | 0.8835 | – | –

ClC(Cl)Cl + CO
viscosity [mPa·s]
Conditions | 101 kPa | 101.3 kPa
303 K, x1 = 0.096 | – | 0.5644
303 K, x1 = 0.1963 | – | 0.6289
303 K, x1 = 0.2971 | – | 0.6315
303 K, x1 = 0.4963 | – | 0.5872
303 K, x1 = 0.6952 | – | 0.5447
303 K, x1 = 0.9092 | – | 0.5211
303.15 K, x1 = 0.0499 | 0.59 | –
303.15 K, x1 = 0.1326 | 0.642 | –
303.15 K, x1 = 0.3228 | 0.653 | –
303.15 K, x1 = 0.4234 | 0.634 | –
303.15 K, x1 = 0.5123 | 0.621 | –
303.15 K, x1 = 0.6981 | 0.608 | –
303.15 K, x1 = 0.8262 | 0.61 | –
303.15 K, x2 = 0.0625 | 0.509 | 0.509
303.15 K, x2 = 0.0947 | 0.5084 | 0.5084
303.15 K, x2 = 0.1406 | 0.5099 | 0.5099
303.15 K, x2 = 0.183 | 0.5138 | 0.5138
303.15 K, x2 = 0.2165 | 0.5168 | 0.5168
303.15 K, x2 = 0.3004 | 0.5296 | 0.5296
303.15 K, x2 = 0.3311 | 0.5343 | 0.5343
303.15 K, x2 = 0.3671 | 0.5424 | 0.5424
303.15 K, x2 = 0.3854 | 0.546 | 0.546
303.15 K, x2 = 0.4503 | 0.5601 | 0.5601
303.15 K, x2 = 0.5306 | 0.5764 | 0.5764
303.15 K, x2 = 0.615 | 0.5904 | 0.5904
303.15 K, x2 = 0.7056 | 0.5975 | 0.5975
303.15 K, x2 = 0.743 | 0.5962 | 0.5962
303.15 K, x2 = 0.8147 | 0.5864 | 0.5864
303.15 K, x2 = 0.8944 | 0.5613 | 0.5613
303.15 K, x2 = 0.9355 | 0.5417 | 0.5417
303.15 K, x2 = 0.961 | 0.5281 | 0.5281
311 K, x1 = 0.096 | – | 0.5043
311 K, x1 = 0.1963 | – | 0.5549
311 K, x1 = 0.2971 | – | 0.5593
311 K, x1 = 0.4963 | – | 0.5271
311 K, x1 = 0.6952 | – | 0.4971
311 K, x1 = 0.9092 | – | 0.4822
313.15 K, x1 = 0.0499 | 0.527 | –
313.15 K, x1 = 0.1326 | 0.557 | –
313.15 K, x1 = 0.3228 | 0.566 | –
313.15 K, x1 = 0.4234 | 0.554 | –
313.15 K, x1 = 0.5123 | 0.549 | –
313.15 K, x1 = 0.6981 | 0.545 | –
313.15 K, x1 = 0.8262 | 0.55 | –
319 K, x1 = 0.096 | – | 0.4586
319 K, x1 = 0.1963 | – | 0.4932
319 K, x1 = 0.2971 | – | 0.5022
319 K, x1 = 0.4963 | – | 0.4779
319 K, x1 = 0.6952 | – | 0.4574
319 K, x1 = 0.9092 | – | 0.4489
323.15 K, x1 = 0.0499 | 0.439 | –
323.15 K, x1 = 0.1326 | 0.448 | –
323.15 K, x1 = 0.3228 | 0.451 | –
323.15 K, x1 = 0.4234 | 0.468 | –
323.15 K, x1 = 0.5123 | 0.474 | –
323.15 K, x1 = 0.6981 | 0.482 | –
323.15 K, x1 = 0.8262 | 0.496 | –

O=CC(Cl)(Cl)Cl + CO
313.15 K, 101 kPa
Conditions | viscosity [mPa·s]
x1 = 0.0365 | 0.5111
x1 = 0.1162 | 0.9078
x1 = 0.2408 | 2.096
x1 = 0.3032 | 2.491
x1 = 0.4207 | 6.085
x1 = 0.444 | 6.591
x1 = 0.4731 | 7.389
x1 = 0.5032 | 7.028
x1 = 0.5958 | 3.182
x1 = 0.7159 | 1.792
x1 = 0.8416 | 1.198
x1 = 0.9603 | 0.8738

ClC(Cl)Cl + COC(=O)OC
viscosity [mPa·s], 101.33 kPa
Conditions | x2 = 0.0987 | x2 = 0.2134 | x2 = 0.3031 | x2 = 0.4027 | x2 = 0.5031 | x2 = 0.6187 | x2 = 0.7021 | x2 = 0.7996 | x2 = 0.9013
298.15 K | 0.528 | 0.553 | 0.566 | 0.57 | 0.565 | 0.559 | 0.546 | 0.545 | 0.541
303.15 K | 0.501 | 0.525 | 0.53 | 0.536 | 0.531 | 0.523 | 0.514 | 0.513 | 0.509
308.15 K | 0.475 | 0.494 | 0.504 | 0.507 | 0.502 | 0.493 | 0.484 | 0.48 | 0.48

CCOCCOCC + COCCO
viscosity [mPa·s], 101.33 kPa
Conditions | 298.15 K | 308.15 K
x1 = 0.0157 | 1.497 | 1.223
x2 = 0.0142 | 0.608 | 0.529
x2 = 0.0354 | 0.617 | 0.539
x2 = 0.0658 | 0.631 | 0.549
x2 = 0.0821 | 0.639 | 0.553
x2 = 0.1085 | 0.647 | 0.561
x2 = 0.1503 | 0.663 | 0.578
x2 = 0.2016 | 0.685 | 0.592
x2 = 0.28 | 0.723 | 0.62
x2 = 0.3202 | 0.742 | 0.639
x2 = 0.3604 | 0.767 | 0.655
x2 = 0.4322 | 0.812 | 0.691
x2 = 0.4797 | 0.847 | 0.718
x2 = 0.5152 | 0.875 | 0.739
x2 = 0.5455 | 0.901 | 0.758
x2 = 0.5957 | 0.946 | 0.792
x2 = 0.6464 | 0.996 | 0.832
x2 = 0.7119 | 1.066 | 0.883
x2 = 0.7472 | 1.105 | 0.918
x2 = 0.8023 | 1.18 | 0.969
x2 = 0.8705 | 1.275 | 1.054
x2 = 0.9222 | 1.366 | 1.119
x2 = 0.9592 | 1.425 | 1.167

From the CheMixHub viscosity set
